Legend:
Assay type in all cases: in vivo, mouse
[1] = test system: Fmr1 KO2 mice; assay: Tests of daily living (nesting), Fmr1 KO2 mice
From the text: (§1) Mutant fmr1 knockout (KO) mice recapitulate the Fragile X syndrome (FXS) phenotype and represent a preclinical model for assessment of putative drug treatments. In this study three different mice models of FXS were used: Fmr1 KO1 is the original Fmr1 knockout animal that carries an insertion in exon 5. See, e.g., Bakker C E, et al., The Dutch-Belgian Fragile X Consortium, Fmr1 knockout mice: A model to study fragile X mental retardation. Cell. 1994; 78:23-33 It is a protein null, although Fmr1 mRNA is still present. It is backcrossed to the C57/B16 strain. Subsequently, these mice were bred into different background strains, such as the FVB inbred mouse strain. Fmr1 KO2 is a null allele at Fmr1 generated by deletion of the promoter and first exon of Fmr1. See, Mientjes, E J et al., The generation of a conditional Fmr1 knock out mouse model to study Fmrp function in vivo. Neurobiology of Disease (2006) 21(3): 549-555. It is both protein and mRNA null. Backcrossed to the C57/B16 strain. Genotyping was accomplished using TransnetXY Automated Genotyping (http://www.transnetyx.com/). TRANSNETYX, INC., 8110 Cordova Rd. Suite 119, Cordova, TN 38016, USA.
(§2) The mice were housed in plastic cages (35×30×12 cm), 5 in each and habituated to the animal facilities for at least a week before test. The room temperature (21±2° C.), relative humidity (55±5%), a 12-h light-dark cycle (lights on 7 a.m.-7 p.m.) and air exchange (16 times per h) were automatically controlled. The animals had free access to commercial food pellets and water. Testing was conducted during the light phase. Testing was conducted on Fmr1 knockout mice and their wild-type (WT) littermates. Ten mice per treatment group, 14 weeks of age, were used for behavioral experiments. Experiments were conducted in line with the requirements of the UK Animals (Scientific Procedures) Act, 1986.
(§3) Oral dosing was performed by using 1.5-in. curved, 20-gauge, stainless steel feeding needles with a 2.25-mm ball (Braintree Scientific, Braintree, MA). Each gavage treatment was given in 0.5% methyl cellulose (Methyl Cellulose M0512, Sigma-Aldrich, St Louis, MO) used as vehicle with or without treatment compounds. The same veterinarian, blinded to the treatment groups, performed the procedure, and documented animal reactions to oral gavage. Reactions considered to indicate stress were defined as excessive struggling during gavage or abnormal behavior after gavage (labored breathing, frozen stance, exaggerated jumping, shuddering, and hunched posture).
(§4) For experiments all mice were tested once in the same apparatus. Prior to testing, mice not in the study were placed in the apparatus for some minutes before the experiment. The apparatus was then cleaned with moist and dry tissues before testing each mouse. The aim was to create a low but constant background mouse odor for all experimental subjects. All experiments were conducted with the experimenters blind to genotype and drug treatment during all testing and data analysis. Separate investigators prepared and coded dosing solutions, allocated the mice to the study treatment groups, dosed the animals, and collected the behavioral data. Data were analyzed by one-way analysis of variance (ANOVA) followed by post-hoc comparisons where appropriate using Tukey's Multiple Comparison Test. Data are represented as the mean and standard error of the mean (SEM).
3. Tests of daily living (nesting). Species-typical behaviors offer easy ways to test for hippocampal dysfunction. The hippocampus is vital for the performance of species-typical tasks, or “activities of daily living” of mice. […]

[2] = test system: Fmr1 KO2 mice; assay: Open field repetitive behavior: stereotypy count, Fmr1 KO2 mice
From the text: as §1, §2, §3, §4
2. Open Field Repetitive Behaviors (stereotypies: anticlockwise circling (aka counter revolutions) (CCW) and self grooming). Fmr1 KO2 mice display the autism-like phenotypes of repetitive behaviors like CCW, self grooming and stereotypy that typically involves behaviors such as head bobbing.
C. […]

[3] = test system: Fmr1 KO1 mice; assay: Open field hyperactivity (locomotor activity), Fmr1 KO1 mice
From the text: as §1, §2, §3, §4
1. […]

[4] = test system: Fmr1 KO2 mice; assay: Open field repetitive behavior: counter revolutions (CCW), Fmr1 KO2 mice
From the text: as §1, §2, §3, §4
2. Open Field Repetitive Behaviors (stereotypies: anticlockwise circling (aka counter revolutions) (CCW) and self grooming). Fmr1 KO2 mice display the autism-like phenotypes of repetitive behaviors like CCW, self grooming and stereotypy that typically involves behaviors such as head bobbing. […]

[5] = test system: Fmr1 KO1 mice; assay: Open field repetitive behavior: stereotypy count, Fmr1 KO1 mice
From the text: as §1, §2, §3, §4
2. Open Field Repetitive Behaviors (RB) (stereotypies: anticlockwise circling and self grooming). Fmr1 KO1 mice display the autism-like phenotypes of repetitive behaviors like counter revolutions (CCW), self grooming and stereotypy that typically involves behaviors such as head bobbing.
C. […]

## N[C@H]1C=C(C(=O)O)CC1=C(F)F [Compound, (S)-3-Amino-4-(difluoromethylenyl)cyclopent-1-ene-1-carboxylic acid]
[1]; 0.01 mg/Kg PO QD seven days
  Nesting, WT-Veh vs. KO2-Compound: Significant?: Yes
[1]; 0.05 mg/Kg PO QD seven days
  Nesting, WT-Veh vs. KO2-Compound: Significant?: No
  Nesting, WT-Veh vs. KO2-Compound: Summary: ns
[1]; 0.1 mg/Kg PO QD seven days
  Nesting, WT-Veh vs. KO2-Compound: Significant?: No
  Nesting, WT-Veh vs. KO2-Compound: Summary: ns
[1]; 0.05 and 0.1 mg/Kg
  Effect on poorer nest building phenotype (FIG. 5): rescued
[2]; 0.01 mg/Kg PO QD seven days
  Stereotypy count, WT-Veh vs. KO2-Compound: Significant?: Yes
[2]; 0.05 mg/Kg PO QD seven days
  Stereotypy count, WT-Veh vs. KO2-Compound: Significant?: No
  Stereotypy count, WT-Veh vs. KO2-Compound: Summary: ns
[2]; 0.1 mg/Kg PO QD seven days
  Stereotypy count, WT-Veh vs. KO2-Compound: Significant?: No
  Stereotypy count, WT-Veh vs. KO2-Compound: Summary: ns
[2]; 0.05 and 0.1 mg/Kg
  Effect on stereotypy counts phenotype (FIG. 4): reversed
[3]; 0.01 mg/Kg PO QD seven days
  Open field (hyperactivity, total distance traveled), WT-Veh vs. KO1-Compound: Significant?: Yes
[3]; 0.05 mg/Kg PO QD seven days
  Open field (hyperactivity, total distance traveled), WT-Veh vs. KO1-Compound: Significant?: Yes
[3]; 0.1 mg/Kg PO QD seven days
  Open field (hyperactivity, total distance traveled), WT-Veh vs. KO1-Compound: Significant?: No
  Open field (hyperactivity, total distance traveled), WT-Veh vs. KO1-Compound: Summary: ns
[4]; 0.01 mg/Kg PO QD seven days
  Open field counter revolutions (CCW), WT-Veh vs. KO2-Compound: Significant?: Yes
[4]; 0.05 mg/Kg PO QD seven days
  Open field counter revolutions (CCW), WT-Veh vs. KO2-Compound: Significant?: No
  Open field counter revolutions (CCW), WT-Veh vs. KO2-Compound: Summary: ns
[4]; 0.1 mg/Kg PO QD seven days
  Open field counter revolutions (CCW), WT-Veh vs. KO2-Compound: Significant?: No
  Open field counter revolutions (CCW), WT-Veh vs. KO2-Compound: Summary: ns
[4]; 0.05 and 0.1 mg/Kg
  Effect on CCW revolutions phenotype (FIG. 2): rescued
[5]; 0.01 mg/Kg PO QD seven days
  Stereotypy count, WT-Veh vs. KO1-Compound: Significant?: Yes
[5]; 0.05 mg/Kg PO QD seven days
  Stereotypy count, WT-Veh vs. KO1-Compound: Significant?: No
  Stereotypy count, WT-Veh vs. KO1-Compound: Summary: ns
[5]; 0.1 mg/Kg PO QD seven days
  Stereotypy count, WT-Veh vs. KO1-Compound: Significant?: No
  Stereotypy count, WT-Veh vs. KO1-Compound: Summary: ns
[5]; 0.05 and 0.1 mg/Kg
  Effect on repetitive behaviors (stereotypical movements, FIG. 10): decreased
